Measured values taken from ChEMBL document CHEMBL1201862, “PubChem BioAssay data set” (2004).
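Growth conditions: 96-well plates. Treatment: test compound, 48 hours, 5 concentrations. Analysis: linear interpolation between bracketing concentrations; unreached endpoints set to highest concentration. The concentration for 50% growth inhibition is given as GI50.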 Active and inactive are the calls of the source. No stated cut-off is given here; in the data, active = GI50 up to about 1.1 µM and inactive = higher.

How the values were obtained:
Test in all cases: NCI tumour cell line growth inhibition, 48 h
[1] = system: KM-20L2
[2] = system: DMS-273
[3] = system: M19-MEL
[4] = system: DLD-1
[5] = system: LXFL 529
[6] = system: DMS-114
[7] = system: BT-549
[8] = system: Hs-578T

Structure (SMILES)	GI50 [1]	GI50 [2]	GI50 [3]	GI50 [4]	GI50 [5]	GI50 [6]	GI50 [7]	GI50 [8]
COC(=O)C1=C(C(=O)OC)C2=S(SC3=C2CCCC3)S1 (stereo not given)	24.6 µM (inactive)	13.1 µM (inactive)	26.5 µM (inactive)	24 µM (inactive)	5.05 µM (inactive)			
N#CC(/C(CCCC(=O)Nc1cccc([N+](=O)[O-])c1)=N\NC(=O)c1c(O)ccc2ccccc12)c1nc2ccccc2s1 (stereo not given)	27 µM (inactive)	8.63 µM (inactive)	16.4 µM (inactive)	45.5 µM (inactive)	30.8 µM (inactive)	12.6 µM (inactive)		
Cc1cc(C)c2c(=O)n(CN3CCC(C#N)(c4ccccc4)CC3)sc2n1							91.2 µM (inactive)	47.8 µM (inactive)
O=C1C[C@H]2[C@@H](O1)[C@@H](O)CN1C(=O)c3ccccc3[C@H]21							> 100 µM (inactive)	
N=c1oc2ccccc2cc1C(=O)Nc1nccs1							39.5 µM (inactive)	46.3 µM (inactive)
O=C1CCCCC1CN1CCCCC1 (stereo not given)							> 100 µM (inactive)	> 100 µM (inactive)
CCCN(CCc1ccc(-c2ccccc2)cc1)CCc1ccc2nn[nH]c2c1							8.2 µM (inactive)	17.4 µM (inactive)
CCC1(CC)SCc2nc3ccccc3n21								31.1 µM (inactive)
CC(=O)N(CN1C(=O)CCC1C(=O)O)c1ccccc1 (stereo not given)							> 100 µM (inactive)	> 53.3 µM (inactive)
COc1ccc(/C=C/C(=O)C(C)(C)CN2CCCCC2)cc1	20.2 µM (inactive)	18.2 µM (inactive)	16.4 µM (inactive)	18 µM (inactive)	15.5 µM (inactive)	15 µM (inactive)		
COc1cc2oc(=O)cc(C)c2cc1OC								> 100 µM (inactive)
CC1OC(n2ccc3ccc([N+](=O)[O-])cc32)C(O)C(O)C1O (stereo not given)	> 100 µM (inactive)	> 100 µM (inactive)	> 100 µM (inactive)	> 100 µM (inactive)	> 100 µM (inactive)	> 100 µM (inactive)		
Cc1cccc(N/C(=C(/C(Cl)=C(Cl)Cl)[N+](=O)[O-])n2nnc3ccccc32)c1							18.6 µM (inactive)	4.91 µM (inactive)
CC1=CCC[C@@]2(C)C(CC[C@@H]2C(C)/C=C/C(C)C)c2ccc(cc2C(=O)O)C[C@@H](O)CC1 (stereo not given in full)		14.4 µM (inactive)	12.7 µM (inactive)	3.67 µM (inactive)	11.6 µM (inactive)	18.5 µM (inactive)		
Cc1ccc(C(=O)Nc2ccccc2)cc1/N=N/N(C)C	> 10 µM (inactive)	> 100 µM (inactive)	> 100 µM (inactive)	> 100 µM (inactive)	> 100 µM (inactive)			
O=C(O)CC/C(=N\Nc1nsc2ccccc12)c1ccc(Cl)cc1	41.1 µM (inactive)	20 µM (inactive)	35 µM (inactive)		19.4 µM (inactive)	25 µM (inactive)	25.1 µM (inactive)	33.3 µM (inactive)

Structure (SMILES)	GI50 [1]	GI50 [2]	GI50 [3]	GI50 [4]	GI50 [5]	GI50 [6]	GI50 [7]	GI50 [8]
C=CC(C)(C)n1cc(C2=C(O)C(=O)C(c3c(CC=C(C)C)[nH]c4ccccc34)=C(O)C2=O)c2ccccc21							0.571 µM (active)	1.43 µM (inactive)
COC(=O)c1ccc(C)cc1CC1Cc2cc(C)ccc2C1=O (stereo not given)							94.2 µM (inactive)	> 100 µM (inactive)
CCOC(=O)c1c(O)cc(=O)[nH]c1N1CCOCC1							> 100 µM (inactive)	
COC(=O)NC(Cc1ccccc1)NC(=O)OC(C)(C)C (stereo not given)							> 100 µM (inactive)	> 100 µM (inactive)
COc1cccc(C(NC2=NCCC=N2)c2cc3c(cc2O)OCO3)c1O (stereo not given)							16.7 µM (inactive)	25.4 µM (inactive)
COC(=O)C1N=CSCC1(C)O (stereo not given)	> 100 µM (inactive)		> 100 µM (inactive)	> 100 µM (inactive)		> 100 µM (inactive)		
C=C(C)C(O)C(O)c1c(OC)ccc2ccc(=O)oc12 (stereo not given)							> 100 µM (inactive)	> 100 µM (inactive)
CC(CN(C)C)C(O)(c1ccccc1)c1ccccc1 (stereo not given)							> 100 µM (inactive)	> 100 µM (inactive)
CC1(C)C2CCC1(C)C(N/C(Sc1ccccc1)=C(/C(Cl)=C(Cl)Cl)[N+](=O)[O-])C2 (stereo not given)							12.4 µM (inactive)	
O=[N+]([O-])c1nccn1CC(O)c1ccccc1 (stereo not given)	> 100 µM (inactive)	> 100 µM (inactive)			> 100 µM (inactive)	> 100 µM (inactive)		
COC(=O)[C@@]1(O)CC(C)C=C1C=O (stereo not given in full)	> 100 µM (inactive)	19.2 µM (inactive)	80.7 µM (inactive)	43 µM (inactive)	68.7 µM (inactive)	30.2 µM (inactive)		
C#CCN(Cc1ccc2[nH]c(N)nc(=O)c2c1)c1ccc(C(=O)NC(CCC(=O)O)C(=O)O)cc1 (stereo not given)							8.11 µM (inactive)	
Cc1ncc([N+](=O)[O-])n1CCNC(=O)Cn1ccnc1[N+](=O)[O-]							> 100 µM (inactive)	> 100 µM (inactive)
COc1ccc(-c2cc(=O)c3c(OC)c(OC)c(OC)c(OC)c3o2)cc1 [TANGERETIN]							58.9 µM (inactive)	34.2 µM (inactive)
Cn1nnc2c(C(N)=O)ncn2c1=O [TEMOZOLOMIDE]	> 100 µM (inactive)		> 100 µM (inactive)	> 100 µM (inactive)	> 100 µM (inactive)	> 100 µM (inactive)	> 100 µM (inactive)	> 100 µM (inactive)
